Data from patent US20240398811A1, “PRC2 INHIBITORS FOR USE IN TREATING BLOOD DISORDERS” (ORIC Pharmaceuticals, Inc., priority 2021, published 2024).

The compounds below were run against purified human, His-tagged PRC2 complex (Homo sapiens (Human), UniProt O75530) (assay: Hot Spot HMT assay, inhibition of PRC2 enzymatic activity). Details: 10 nM PRC2 complex, 1 μM 3H-SAM, core histone H3, 10-point dose-response.
Format: biochemical
Procedure, shortened: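 Methyl transfer from 1 μM tritiated SAM onto 0.05 mg/ml core histone H3, catalysed by 10 nM His/Flag-tagged human PRC2 holoenzyme, was run 1 hr at 30° C after a 20 min compound preincubation. Serial dilutions began at 1.0 μM; product captured on filters and counted.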

Chain of purified human, His-tagged PRC2 complex (O75530 whole entry): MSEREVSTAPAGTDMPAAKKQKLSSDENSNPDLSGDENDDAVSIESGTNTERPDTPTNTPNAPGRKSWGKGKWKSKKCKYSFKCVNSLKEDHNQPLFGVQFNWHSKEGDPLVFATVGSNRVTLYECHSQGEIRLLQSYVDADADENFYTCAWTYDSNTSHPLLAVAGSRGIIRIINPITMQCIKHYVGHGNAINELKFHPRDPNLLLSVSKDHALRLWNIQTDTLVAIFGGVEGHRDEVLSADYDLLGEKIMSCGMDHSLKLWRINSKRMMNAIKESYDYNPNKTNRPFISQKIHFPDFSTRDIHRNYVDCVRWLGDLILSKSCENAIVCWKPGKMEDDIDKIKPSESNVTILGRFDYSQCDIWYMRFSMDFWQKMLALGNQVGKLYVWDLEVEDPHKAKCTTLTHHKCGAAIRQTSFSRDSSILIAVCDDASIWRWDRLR
Chain of purified human, His-tagged PRC2 complex (Q15910 whole entry partner): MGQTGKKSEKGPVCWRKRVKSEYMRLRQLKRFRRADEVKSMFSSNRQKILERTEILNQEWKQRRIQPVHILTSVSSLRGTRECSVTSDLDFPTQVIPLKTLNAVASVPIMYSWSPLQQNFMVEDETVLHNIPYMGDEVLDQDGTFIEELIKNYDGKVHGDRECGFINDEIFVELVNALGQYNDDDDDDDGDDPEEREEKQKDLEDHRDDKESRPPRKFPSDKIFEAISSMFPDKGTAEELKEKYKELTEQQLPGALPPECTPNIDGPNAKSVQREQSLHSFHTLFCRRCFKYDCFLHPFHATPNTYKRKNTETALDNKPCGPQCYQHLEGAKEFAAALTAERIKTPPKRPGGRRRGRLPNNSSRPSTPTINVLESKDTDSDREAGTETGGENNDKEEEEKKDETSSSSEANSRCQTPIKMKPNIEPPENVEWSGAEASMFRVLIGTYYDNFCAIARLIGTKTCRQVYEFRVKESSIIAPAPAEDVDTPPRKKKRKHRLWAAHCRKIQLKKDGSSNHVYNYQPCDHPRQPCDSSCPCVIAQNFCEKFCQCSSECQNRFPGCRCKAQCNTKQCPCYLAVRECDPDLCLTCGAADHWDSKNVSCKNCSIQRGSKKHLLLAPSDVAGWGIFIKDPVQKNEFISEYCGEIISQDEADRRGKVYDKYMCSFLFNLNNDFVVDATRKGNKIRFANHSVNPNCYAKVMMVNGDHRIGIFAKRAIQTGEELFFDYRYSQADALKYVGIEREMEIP
Chain of purified human, His-tagged PRC2 complex (Q15022 whole entry partner): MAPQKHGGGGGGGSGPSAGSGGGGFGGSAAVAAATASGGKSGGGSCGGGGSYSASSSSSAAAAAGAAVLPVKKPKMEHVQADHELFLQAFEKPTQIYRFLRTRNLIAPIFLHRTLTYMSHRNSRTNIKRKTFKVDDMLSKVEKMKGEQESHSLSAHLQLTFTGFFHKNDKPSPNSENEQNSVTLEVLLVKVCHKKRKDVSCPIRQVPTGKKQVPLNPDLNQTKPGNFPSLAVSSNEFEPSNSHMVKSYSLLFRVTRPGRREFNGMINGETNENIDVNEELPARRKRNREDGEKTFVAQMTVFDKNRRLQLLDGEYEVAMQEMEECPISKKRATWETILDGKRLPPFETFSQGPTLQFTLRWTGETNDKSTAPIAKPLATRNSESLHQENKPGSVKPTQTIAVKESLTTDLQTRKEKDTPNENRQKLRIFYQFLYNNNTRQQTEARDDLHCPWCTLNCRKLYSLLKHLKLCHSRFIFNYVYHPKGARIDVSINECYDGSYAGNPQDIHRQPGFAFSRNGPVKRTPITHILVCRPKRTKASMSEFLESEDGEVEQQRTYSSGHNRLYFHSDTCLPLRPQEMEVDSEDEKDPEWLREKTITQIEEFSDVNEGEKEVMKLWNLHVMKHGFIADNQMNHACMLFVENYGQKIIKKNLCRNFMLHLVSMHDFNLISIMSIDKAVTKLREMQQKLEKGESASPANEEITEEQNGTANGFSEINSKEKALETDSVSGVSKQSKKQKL
Chain of purified human, His-tagged PRC2 complex (Q6ZN18 whole entry partner): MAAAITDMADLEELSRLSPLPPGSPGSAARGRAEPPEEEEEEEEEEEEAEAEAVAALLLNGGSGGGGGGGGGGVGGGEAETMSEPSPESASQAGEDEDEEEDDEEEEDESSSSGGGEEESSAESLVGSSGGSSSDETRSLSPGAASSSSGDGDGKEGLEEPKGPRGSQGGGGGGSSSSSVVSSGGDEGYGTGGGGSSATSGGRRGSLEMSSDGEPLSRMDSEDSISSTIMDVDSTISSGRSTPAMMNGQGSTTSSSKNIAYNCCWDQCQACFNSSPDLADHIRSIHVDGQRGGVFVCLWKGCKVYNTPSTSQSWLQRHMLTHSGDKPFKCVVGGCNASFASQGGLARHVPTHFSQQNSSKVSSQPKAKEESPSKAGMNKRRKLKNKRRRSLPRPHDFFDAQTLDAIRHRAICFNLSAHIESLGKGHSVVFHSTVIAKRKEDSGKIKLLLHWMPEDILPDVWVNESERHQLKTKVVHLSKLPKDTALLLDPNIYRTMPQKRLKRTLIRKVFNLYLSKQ
Chain of purified human, His-tagged PRC2 complex (Q09028 whole entry partner): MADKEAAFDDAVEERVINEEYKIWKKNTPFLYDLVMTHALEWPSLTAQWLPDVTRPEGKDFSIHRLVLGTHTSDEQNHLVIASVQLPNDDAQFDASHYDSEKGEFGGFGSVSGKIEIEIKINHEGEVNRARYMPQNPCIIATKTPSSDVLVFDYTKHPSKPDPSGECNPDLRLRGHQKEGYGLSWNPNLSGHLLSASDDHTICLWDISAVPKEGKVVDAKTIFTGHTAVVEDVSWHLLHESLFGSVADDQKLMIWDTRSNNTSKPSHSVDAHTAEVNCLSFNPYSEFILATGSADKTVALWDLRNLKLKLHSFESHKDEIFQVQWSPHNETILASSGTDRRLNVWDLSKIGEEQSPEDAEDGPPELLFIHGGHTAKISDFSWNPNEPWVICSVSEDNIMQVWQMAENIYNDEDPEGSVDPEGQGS

| Structure (SMILES) | IC50 |
| --- | --- |
| N#Cc1cn2c(NCc3c(F)ccc4c3CCO4)ncc(-c3cnn(Cc4cccnc4)c3)c2n1 [Example 101, 5-(((5-fluoro-2,3-dihydrobenzofuran-4-yl)methyl)amino)-8-(1-(pyridin-3-ylmethyl)-1H-pyrazol-4-yl)imidazo[1,2-c]pyrimidine-2-carbonitrile] | 100 to 500 nM |
| CN(C)CCn1cc(-c2cnc(NCc3c(F)ccc4c3CCO4)n3cc(C#N)nc23)cn1 [Example 102, 8-(1-(2-(dimethylamino)ethyl)-1H-pyrazol-4-yl)-5-(((5-fluoro-2,3-dihydrobenzofuran-4-yl)methyl)amino)imidazo[1,2-c]pyrimidine-2-carbonitrile] | 100 to 500 nM |
| CN(C)CCCn1cc(-c2cnc(NCc3c(F)ccc4c3CCO4)n3cc(C#N)nc23)cn1 [Example 103, 8-(1-(3-(dimethylamino)propyl)-1H-pyrazol-4-yl)-5-(((5-fluoro-2,3-dihydrobenzofuran-4-yl)methyl)amino)imidazo[1,2-c]pyrimidine-2-carbonitrile] | 100 to 500 nM |
| Cc1n[nH]c(C)c1-c1cnc(NCc2c(F)ccc3c2CCO3)n2cc(C#N)nc12 [Example 104, 8-(3,5-dimethyl-1H-pyrazol-4-yl)-5-(((5-fluoro-2,3-dihydrobenzofuran-4-yl)methyl)amino)imidazo[1,2-c]pyrimidine-2-carbonitrile] | > 500 nM |
| N#Cc1cn2c(NCc3c(F)ccc4c3CCO4)ncc(-c3cnn(C4COC4)c3)c2n1 [Example 106, 5-(((5-fluoro-2,3-dihydrobenzofuran-4-yl)methyl)amino)-8-(1-(oxetan-3-yl)-1H-pyrazol-4-yl)imidazo[1,2-c]pyrimidine-2-carbonitrile] | 100 to 500 nM |
| N#Cc1cn2c(NCc3c(F)ccc4c3CCO4)ncc(-c3cnn(C4CCOC4)c3)c2n1 (stereo not shown) [Example 107, 5-(((5-fluoro-2,3-dihydrobenzofuran-4-yl)methyl)amino)-8-(1-(tetrahydrofuran-3-yl)-1H-pyrazol-4-yl)imidazo[1,2-c]pyrimidine-2-carbonitrile] | 100 to 500 nM |
| COCCn1cc(-c2cnc(NCc3c(F)ccc4c3CCO4)n3cc(C#N)nc23)cn1 [Example 117, 5-(((5-fluoro-2,3-dihydrobenzofuran-4-yl)methyl)amino)-8-(1-(2-methoxyethyl)-1H-pyrazol-4-yl)imidazo[1,2-c]pyrimidine-2-carbonitrile] | 100 to 500 nM |
| CCn1cc(-c2cnc(NCc3c(F)ccc4c3CCO4)n3cc(C#N)nc23)cn1 [Example 119, 8-(1-ethyl-1H-pyrazol-4-yl)-5-(((5-fluoro-2,3-dihydrobenzofuran-4-yl)methyl)amino)imidazo[1,2-c]pyrimidine-2-carbonitrile] | 100 to 500 nM |
| N#Cc1cn2c(NCc3c(F)ccc4c3CCO4)ncc(-c3cnn(C4CCOCC4)c3)c2n1 [Example 120, 5-(((5-fluoro-2,3-dihydrobenzofuran-4-yl)methyl)amino)-8-(1-(tetrahydro-2H-pyran-4-yl)-1H-pyrazol-4-yl)imidazo[1,2-c]pyrimidine-2-carbonitrile] | > 500 nM |
| Cc1cc(-c2cnc(NCc3c(F)ccc4c3CCCO4)n3cc(C#N)nc23)n(C)n1 [Example 122, 8-(1,3-dimethyl-1H-pyrazol-5-yl)-5-(((6-fluorochroman-5-yl)methyl)amino)imidazo[1,2-c]pyrimidine-2-carbonitrile] | > 500 nM |
| COc1cc(-c2cnc(NCc3c(F)ccc4c3CCO4)n3cc(C#N)nc23)c(F)cn1 [Example 123, 5-(((5-fluoro-2,3-dihydrobenzofuran-4-yl)methyl)amino)-8-(5-fluoro-2-methoxypyridin-4-yl)imidazo[1,2-c]pyrimidine-2-carbonitrile] | < 100 nM |
| CCOc1ncccc1-c1cnc(NCc2c(F)ccc3c2CCO3)n2cc(C#N)nc12 [Example 124, 8-(2-ethoxypyridin-3-yl)-5-(((5-fluoro-2,3-dihydrobenzofuran-4-yl)methyl)amino)imidazo[1,2-c]pyrimidine-2-carbonitrile] | < 100 nM |
| COc1cc(-c2cnc(NCc3c(F)ccc4c3CCO4)n3cc(C#N)nc23)c(OC)cn1 [Example 125, 8-(2,5-dimethoxypyridin-4-yl)-5-(((5-fluoro-2,3-dihydrobenzofuran-4-yl)methyl)amino)imidazo[1,2-c]pyrimidine-2-carbonitrile] | < 100 nM |
| N#Cc1cn2c(NCc3c(F)ccc4c3CCO4)ncc(-c3ccc(C(F)(F)F)nc3)c2n1 [Example 126, 5-(((5-fluoro-2,3-dihydrobenzofuran-4-yl)methyl)amino)-8-(6-(trifluoromethyl)pyridin-3-yl)imidazo[1,2-c]pyrimidine-2-carbonitrile] | 100 to 500 nM |
| N#Cc1cn2c(NCc3c(F)ccc4c3CCO4)ncc(-c3ccc(N)nc3)c2n1 [Example 127, 8-(6-aminopyridin-3-yl)-5-(((5-fluoro-2,3-dihydrobenzofuran-4-yl)methyl)amino)imidazo[1,2-c]pyrimidine-2-carbonitrile] | < 100 nM |
| N#Cc1ccc(-c2cnc(NCc3c(F)ccc4c3CCO4)n3cc(C#N)nc23)cn1 [Example 128, 8-(6-cyanopyridin-3-yl)-5-(((5-fluoro-2,3-dihydrobenzofuran-4-yl)methyl)amino)imidazo[1,2-c]pyrimidine-2-carbonitrile] | < 100 nM |
| Cc1ncc(-c2cnc(NCc3c(F)ccc4c3CCO4)n3cc(C#N)nc23)cc1N [Example 129, 8-(5-amino-6-methylpyridin-3-yl)-5-(((5-fluoro-2,3-dihydrobenzofuran-4-yl)methyl)amino)imidazo[1,2-c]pyrimidine-2-carbonitrile] | < 100 nM |

Second part, the compound after the results:

| IC50 | Structure (SMILES) |
| --- | --- |
| < 100 nM | CC(C)n1cc(-c2cnc(NCc3c(F)ccc4c3CCO4)n3cc(C#N)nc23)cn1 [Example 99, 5-(((5-fluoro-2,3-dihydrobenzofuran-4-yl)methyl)amino)-8-(1-isopropyl-1H-pyrazol-4-yl)imidazo[1,2-c]pyrimidine-2-carbonitrile] |
| < 100 nM | N#Cc1cn2c(NCc3c(F)ccc4c3CCO4)ncc(-c3cccnc3)c2n1 [Example 100, 5-(((5-fluoro-2,3-dihydrobenzofuran-4-yl)methyl)amino)-8-(pyridin-3-yl)imidazo[1,2-c]pyrimidine-2-carbonitrile] |
| < 100 nM | Cc1ncccc1-c1cnc(NCc2c(F)ccc3c2CCO3)n2cc(C#N)nc12 [Example 105, 5-(((5-fluoro-2,3-dihydrobenzofuran-4-yl)methyl)amino)-8-(2-methylpyridin-3-yl)imidazo[1,2-c]pyrimidine-2-carbonitrile] |
| < 100 nM | N#Cc1cn2c(NCc3c(F)ccc4c3CCO4)ncc(-c3cnn(CC(F)(F)F)c3)c2n1 [Example 108, 5-(((5-fluoro-2,3-dihydrobenzofuran-4-yl)methyl)amino)-8-(1-(2,2,2-trifluoroethyl)-1H-pyrazol-4-yl)imidazo[1,2-c]pyrimidine-2-carbonitrile] |
| < 100 nM | N#Cc1cn2c(NCc3c(F)ccc4c3CCO4)ncc(-c3cnccc3Cl)c2n1 [Example 109, 8-(4-chloropyridin-3-yl)-5-(((5-fluoro-2,3-dihydrobenzofuran-4-yl)methyl)amino)imidazo[1,2-c]pyrimidine-2-carbonitrile] |
| < 100 nM | Cc1ncncc1-c1cnc(NCc2c(F)ccc3c2CCO3)n2cc(C#N)nc12 [Example 110, 5-(((5-fluoro-2,3-dihydrobenzofuran-4-yl)methyl)amino)-8-(4-methylpyrimidin-5-yl)imidazo[1,2-c]pyrimidine-2-carbonitrile] |
| < 100 nM | Cn1nc(C(F)(F)F)cc1-c1cnc(NCc2c(F)ccc3c2CCO3)n2cc(C#N)nc12 [Example 111, 5-(((5-fluoro-2,3-dihydrobenzofuran-4-yl)methyl)amino)-8-(1-methyl-3-(trifluoromethyl)-1H-pyrazol-5-yl)imidazo[1,2-c]pyrimidine-2-carbonitrile] |
| < 100 nM | CN(C)Cc1ccc(-c2cnc(NCc3c(F)ccc4c3CCO4)n3cc(C#N)nc23)cc1 [Example 112, 8-(4-((dimethylamino)methyl)phenyl)-5-(((5-fluoro-2,3-dihydrobenzofuran-4-yl)methyl)amino)imidazo[1,2-c]pyrimidine-2-carbonitrile] |
| < 100 nM | COc1cc(-c2cnc(NCc3c(F)ccc4c3CCO4)n3cc(C#N)nc23)ccn1 [Example 113, 5-(((5-fluoro-2,3-dihydrobenzofuran-4-yl)methyl)amino)-8-(2-methoxypyridin-4-yl)imidazo[1,2-c]pyrimidine-2-carbonitrile] |
| < 100 nM | Cn1nccc1-c1cnc(NCc2c(F)ccc3c2CCO3)n2cc(C#N)nc12 [Example 114, 5-(((5-fluoro-2,3-dihydrobenzofuran-4-yl)methyl)amino)-8-(1-methyl-1H-pyrazol-5-yl)imidazo[1,2-c]pyrimidine-2-carbonitrile] |
| < 100 nM | CN1CCN(C(=O)c2ccc(-c3cnc(NCc4c(F)ccc5c4CCO5)n4cc(C#N)nc34)cc2)CC1 [Example 115, 5-(((5-fluoro-2,3-dihydrobenzofuran-4-yl)methyl)amino)-8-(4-(4-methylpiperazine-1-carbonyl)phenyl)imidazo[1,2-c]pyrimidine-2-carbonitrile] |
| < 100 nM | N#Cc1cn2c(NCc3c(F)ccc4c3CCO4)ncc(-c3ccc(C4CC4)nc3)c2n1 [Example 116, 8-(6-cyclopropylpyridin-3-yl)-5-(((5-fluoro-2,3-dihydrobenzofuran-4-yl)methyl)amino)imidazo[1,2-c]pyrimidine-2-carbonitrile] |
| < 100 nM | N#Cc1cn2c(NCc3c(F)ccc4c3CCO4)ncc(-c3cnn(C4CCCCO4)c3)c2n1 (stereo not shown) [Example 118, 5-(((5-fluoro-2,3-dihydrobenzofuran-4-yl)methyl)amino)-8-(1-(tetrahydro-2H-pyran-2-yl)-1H-pyrazol-4-yl)imidazo[1,2-c]pyrimidine-2-carbonitrile] |
| < 100 nM | CC(C)(O)Cn1cc(-c2cnc(NCc3c(F)ccc4c3CCO4)n3cc(C#N)nc23)cn1 [Example 121, 5-(((5-fluoro-2,3-dihydrobenzofuran-4-yl)methyl)amino)-8-(1-(2-hydroxy-2-methylpropyl)-1H-pyrazol-4-yl)imidazo[1,2-c]pyrimidine-2-carbonitrile] |
